The source of these data is patent US11369609B2, “Small molecule Wnt inhibitor as treatment for dyslipidemia” (Yale University, priority 2019, dated 2022).

One data set relates to kidney endothelial cells. Put plainly: Fatty acid oxidation (14CO2 release from [14C]palmitate) in isolated kidney endothelial cells. Type of data set: in vivo, mice. The note with it: for FAO, as measured by 14CO2 release: diabetic CD-1 mice treated for 4 weeks. Here is the method: Endothelial cells from the kidneys of non-diabetic and diabetic mice were isolated using a standardized kit (Miltenyl Biotech, USA) by following the manufacturer's instructions. Briefly, kidneys were isolated and minced into small pieces. Using a series of enzymatic reactions by treating the tissue with trypsin and Collagenase type I solution, a single cell suspension was created. The pellet was dissolved with CD31 magnetic beads and the CD31-labelled cells were separated on a magnetic separator. The cells were further purified on a column. Cell number was counted by hemocytometer and cells were plated on 0.1% gelatin coated Petri dishes.
Cultured isolated kidney endothelial cells were incubated with medium containing 0.75 mmol/L palmitate (conjugated to 2% free fatty acid-free BSA/[^14C] palmitate at 2 μCi/mL) for 2 h. One mL of the culture medium was transferred to a sealable tube, the cap of which housed a Whatman filter paper disc. ^14CO2 trapped in the media was then released by acidification of media using 60% perchloric acid. Radioactivity that had become adsorbed onto the filter discs was then quantified by liquid scintillation counting.
It is increasingly recognized that defects in central metabolism contribute to kidney fibrosis (69, 76). Defective FA metabolism in EC leads to EndMT events (77). To investigate whether FA metabolism was deranged in the model, radiolabeled [^14C]palmitate uptake experiments were performed in isolated EC from mouse kidneys. FA uptake was higher in isolated EC from the diabetic kidneys of the more fibrotic strain (diabetic CD-1) when compared to kidney EC from the less-fibrotic strain (diabetic C57BL/6). […] FA oxidation (FAO) was also assessed by measuring the ^14CO2 release from radiolabeled [^14C]palmitate in cultured EC isolated from kidneys. […] In the next set of experiments, diabetic CD-1 mice were treated with the FA synthase inhibitor C75, the FAO inhibitor etomoxir, the PPARα agonist fenofibrate, and the cholesterol-lowering drug simvastatin for 4 weeks. […] (FIG. 23A). Fenofibrate and C75 restored the level of GR protein in CD31 positive cells, whereas etomoxir and simvastatin suppressed it (FIG. 23B).

Another data set concerns diabetic CD-1 mice. Put plainly: FA metabolism modulators and simvastatin in diabetic CD-1 mice (renal fibrosis). It is filed as in vivo. To be noted: for fibrogenic phenotype / level of fibrosis in kidneys / fibronectin mRNA level in diabetic kidneys / level of GR protein in CD31 positive cells / αSMA mRNA level in diabetic kidneys: diabetic CD-1 mice treated for 4 weeks; for CPT1a level / β-catenin level: diabetic CD-1 mice, kidney immunohistochemistry. As to the method:
(§1) All experiments were performed in accordance with the National Institute of Health (NIH) Guidelines for the Care of Laboratory Animals. Mice lacking the endothelial glucocorticoid receptor (GR) (known as GR^ECKO) and those lacking this receptor on the Apo E null background (DKO) were generated as previously described (6). The induction of diabetes in CD-1 mice and C57B/L6 mice was performed according to previously established experimental protocols (38-42). Briefly, diabetes was induced in 10-week-old GR^ECKO mice with five consecutive intraperitoneal (IP) doses of streptozotocin (STZ) 50 mg/kg in 10 mmol/L citrate buffer (pH 4.5). Wnt inhibitor (LGK974) was provided to GR^ECKO and control littermate at 5 mg/kg at a frequency of six doses per week for 8 weeks (43). Etomoxir (20 mg/kg) and c75 (15 mg/kg) were dosed (ip) three times per week for 3 weeks in the GR^ECKO and control littermate. A single IP dose of 200 mg/kg STZ was used to induce diabetes in CD-1 mice. Fenofibrate (100 mg/kg), simvastatin (40 mg/kg), were dosed orally for 4 weeks in diabetic CD-1 mice. All mice were sacrificed after 4 weeks of treatment and tissues and blood were harvested. Urine albumin levels were assayed using a Mouse Albumin ELISA Kit (Exocell, Philadelphia, Pa.).
(§2) A point-counting method was utilized to evaluate the relative area of the mesangial matrix. PAS-stained glomeruli from each mouse were analyzed using a digital microscope screen grid containing 540 (27×20) points. Masson's trichrome-stained images were evaluated by ImageJ software, and the fibrotic areas were estimated.
(§3) Deparaffinized sections were incubated with picrosirius red solution for 1 hour at room temperature. The slides were washed twice with acetic acid solution for 30 seconds per wash. The slides were then dehydrated in absolute alcohol three times, cleared in xylene, and mounted with a synthetic resin. Sirius red staining was analyzed using ImageJ software, and fibrotic areas were quantified.
(§4) Paraffin-embedded kidney sections (5 μm thick) were deparaffinized and rehydrated (2 min in xylene, four times; 1 min in 100% ethanol, twice; 1 min in 95% ethanol; 45 s in 70% ethanol; and 1 min in distilled water), and the antigen was retrieved in a 10 mM citrate buffer pH 6 at 98° C. for 60 min. To block the endogenous peroxidase, all sections were incubated in 0.3% hydrogen peroxide for 10 min. The immunohistochemistry was performed using a Vectastain ABC Kit (Vector Laboratories, Burlingame, Calif.). Mouse anti-[…] antibody (1:100) and CPT1a (Abnova; H00001374-DO1P; 1:100) antibody was used. In the negative controls, the primary antibody was omitted and replaced with the blocking solution.
Frozen kidney sections (5 μm) were used for immunofluorescence; double positive labeling with CD31/αSMA, CD31/TGFβR1 and E-cadherin/αSMA was measured. Briefly, frozen sections were dried and placed in acetone for 10 min at −30° C. Once the sections were dried, they were washed twice in phosphate-buffered saline (PBS) for 5 min and then blocked in 2% bovine serum albumin/PBS for 30 min at room temperature. Thereafter, the sections were incubated in primary antibody (1:100) for 1 hour and washed in PBS (5 min) three times. Next, the sections were incubated with the secondary antibodies for 30 min, washed with PBS three times (5 min each), and mounted with mounting medium with DAPI (Vector Laboratories, Burlingame, Calif.). The immune-labeled sections were analyzed by fluorescence microscopy. For each mouse, original magnification of ×400 pictures were obtained from six different areas, and quantification was performed.
Total RNA was isolated using standard Trizol protocol. RNA was reverse transcribed using the iScript cDNA Synthesis kit (Bio-Rad) and qPCR was performed on a Bio-Rad C1000 Touch thermal cycler using the resultant cDNA, as well as qPCR Master mix and gene specific primers.
It is increasingly recognized that defects in central metabolism contribute to kidney fibrosis (69, 76). […]

Data set [1] concerns diabetic GR^ECKO mice and control littermates. As to the kind of experiment: Etomoxir and C75 in diabetic control littermates and diabetic GR^ECKO mice. The note with it: for body weight: diabetic control littermates and GR^ECKO mice, ip three times per week for 3 weeks. Type of data set: in vivo. Here is the method: as §1, §2, §3, §4
Etomoxir and C75 were also tested in the diabetic control littermates and diabetic GR^ECKO mice. […] (FIG. 17D-E).

Data set [2] has as its system canonical Wnt signaling pathway. As to the kind of experiment: qPCR of canonical Wnt-dependent genes in Wnt3a-treated MLECs. It is filed as cell-based, mouse. Here is the method:
ChIP DNA or total RNA was used for qPCR. Total RNA was isolated using standard Trizol protocol. RNA was reverse transcribed using the iScript cDNA Synthesis kit (Bio-Rad) and qPCR was performed on a Bio-Rad C1000 Touch thermal cycler using the resultant cDNA, qPCR master mix and gene specific primers. The following primers were used: […]
MLECS were cultured and starved for 4 hours in 0.5% FBS. Cells were treated for 4 hours with Wnt3a (200 ng/ml).
To further examine the specificity of GR in this interaction, a similar experiment in GR siRNA-treated cells was performed.

The mark [3] stands for this setting: Wnt3a-conditioned media 6 hours, then DEX 100 nM 1 hour.

Consider `C=C1C(=O)OC(CCCCCCCC)C1C(=O)O` (stereo not shown) [C75], for which, in the data set on kidney endothelial cells, the “FAO, as measured by 14CO2 release” value was “increased the level of FAO”. Also, in the data set on kidney endothelial cells (diabetic GR^ECKO mice), the “FAO in kidney EC” value was “unable to rescue the level of FAO”. For the same molecule, in the data set with kidney endothelial cells (diabetic control littermates), the “FAO in kidney EC” value was “restored FAO”. In addition, in the data set on diabetic CD-1 mice, the “fibrogenic phenotype / level of fibrosis in kidneys” value is listed as “ameliorated the fibrogenic phenotype”, the “fibronectin mRNA level in diabetic kidneys” value is on record as “downregulated”, the “level of GR protein in CD31 positive cells” value is listed as “restored” and the “αSMA mRNA level in diabetic kidneys” value is “downregulated”. Besides, in the data set with diabetic CD-1 mice, the CPT1a level result was “induced the level of CPT1a” and the β-catenin level result is listed as “suppressed the level of β-catenin”. Further, in data set [1], the body weight result is “no significant differences”. For the same molecule, in data set [1] (diabetic control mice), the “CPT1a level in kidneys” value is “restored CPT1a”, the “level of β-catenin in kidneys” value is “completely diminished the level of β-catenin” and the renal fibrogenic phenotype result is given as “clearly abolished the renal fibrogenic phenotype”.

For `C[C@@H]1C[C@H]2[C@@H]3CCC4=CC(=O)C=C[C@]4(C)[C@@]3(F)[C@@H](O)C[C@]2(C)[C@@]1(O)C(=O)COP(=O)(O)O` [DEX, Dexamethasone phosphate], the “sox17 expression, control siRNA vs GR siRNA cells” value in data set [2] (Wnt3a 200 ng/ml 4 hours, DEX 100 nM 1 hour) is listed as “suppressed sox17 expression to a much greater extent in control-siRNA treated cells than in GR siRNA-treated cells”. In data set [2] (setting [3]), the axin2 expression result is recorded as “a similar pattern was observed” and the sox17 expression result is “suppressed expression”.

Regarding `CCOC(=O)[C@@]1(CCCCCCOc2ccc(Cl)cc2)CO1` [etomoxir], the “FAO, as measured by 14CO2 release” value in the data set on kidney endothelial cells is given as “significant suppression”. Moreover, the “FAO in kidney EC” value in the data set on kidney endothelial cells (diabetic GR^ECKO mice) is “significant suppression in FAO”. In addition, the “FAO in kidney EC” value in the data set with kidney endothelial cells (diabetic control littermates) was “significant suppression in FAO”. Further, in the data set with diabetic CD-1 mice, the “fibrogenic phenotype / level of fibrosis in kidneys” value is “exacerbated the fibrosis”, the “fibronectin mRNA level in diabetic kidneys” value is reported as “upregulated”, the “level of GR protein in CD31 positive cells” value is given as “suppressed” and the “αSMA mRNA level in diabetic kidneys” value is “upregulated”. In the data set on diabetic CD-1 mice, the CPT1a level entry is given as “significant suppression” and the β-catenin level result was “induced”. In data set [1] (diabetic GR^ECKO mice), the “CPT1a level in kidneys” value is “suppressed the CPT1a level”, the “level of β-catenin in kidneys” value is “increased the expression level of β-catenin” and the renal fibrogenic phenotype entry is reported as “accelerated the renal fibrogenic phenotype”. For the same molecule, the body weight entry in data set [1] is reported as “no significant differences”. Also, in data set [1] (diabetic control mice), the “CPT1a level in kidneys” value is listed as “suppressed the CPT1a level”, the “level of β-catenin in kidneys” value is listed as “increased the expression level of β-catenin” and the renal fibrogenic phenotype entry is “accelerated the renal fibrogenic phenotype”.

Consider Wnt3a, for which the “sox17 expression, effect of Wnt3a in GR siRNA-treated cells” value in data set [2] (Wnt3a 200 ng/ml 4 hours, GR knockdown) is recorded as “augmented”. For the same molecule, the “sox17 expression, effect of Wnt3a” value in data set [2] (Wnt3a-conditioned media, MLECs) was “induced”.
